According to ChEMBL document CHEMBL5226375, “Synthesis and Comprehensive in Vivo Activity Profiling of Olean-12-en-28-ol, 3β-Pentacosanoate in Experimental Autoimmune Encephalomyelitis: A Natural Remyelinating and Anti-Inflammatory Agent” (J Nat Prod, 2023):
Activity calls are given as the source filed them. The rule behind the calls is not given here.

Experiments:
Mus musculus [1] = assay: Anti-inflammatory activity against MOG35-55-induced experimental autoimmune encephalomyelitis C57BL/6 mouse model assessed as fold change in CD4 gene expression in brain at 0.15 mg/kg/day, ig for 14 days starting from 12th day of immunization by RT-qPCR analysis relative to control; assay type: functional; settings: time 14 day
Mus musculus [2] = assay: Anti-inflammatory activity against MOG35-55-induced experimental autoimmune encephalomyelitis C57BL/6 mouse model assessed as fold change in TNF-alpha gene expression in brain at 0.3 mg/kg/day, ig for 14 days starting from 12th day of immunization by RT-qPCR analysis relative to control; assay type: functional; settings: time 14 day
Mus musculus [3] = assay: Anti-inflammatory activity against MOG35-55-induced experimental autoimmune encephalomyelitis C57BL/6 mouse model assessed as fold change in MBP gene expression in brain at 300 mg/kg/day, ig for 14 days starting from 12th day of immunization by RT-qPCR analysis relative to control; assay type: functional; settings: time 14 day
Mus musculus [4] = assay: Anti-inflammatory activity against MOG35-55-induced experimental autoimmune encephalomyelitis C57BL/6 mouse model assessed as upregulation of PLP protein expression in brain at 300 to 600 mg/kg/day, ig for 14 days starting from 12th day of immunization by western blot analysis relative to control; assay type: functional; settings: dose 300-600 mg/kg/day, time 14 day
Mus musculus [5] = assay: Anti-inflammatory activity against MOG35-55-induced experimental autoimmune encephalomyelitis C57BL/6 mouse model assessed as fold change in STAT3 gene expression in brain at 600 mg/kg/day, ig for 14 days starting from 12th day of immunization by RT-qPCR analysis relative to control; assay type: functional; settings: time 14 day
Mus musculus [6] = assay: Anti-inflammatory activity against MOG35-55-induced experimental autoimmune encephalomyelitis C57BL/6 mouse model assessed as fold change in MMP9 gene expression in brain at 300 mg/kg/day, ig for 14 days starting from 12th day of immunization by RT-qPCR analysis relative to control; assay type: functional; settings: time 14 day
Mus musculus [7] = assay: Anti-inflammatory activity against MOG35-55-induced experimental autoimmune encephalomyelitis C57BL/6 mouse model assessed as reduction in APP protein expression in brain at 300 to 600 mg/kg/day, ig for 14 days starting from 12th day of immunization by western blot analysis relative to control; assay type: functional; settings: dose 300-600 mg/kg/day, time 14 day
Mus musculus [8] = assay: Anti-inflammatory activity against MOG35-55-induced experimental autoimmune encephalomyelitis C57BL/6 mouse model assessed as fold change in APP gene expression in brain at 600 mg/kg/day, ig for 14 days starting from 12th day of immunization by RT-qPCR analysis relative to control; assay type: functional; settings: time 14 day
Mus musculus [9] = assay: Anti-inflammatory activity against MOG35-55-induced experimental autoimmune encephalomyelitis C57BL/6 mouse model assessed as methylation of CpG sites of CXCL14 gene promoter in brain at 600 mg/kg, ig for 14 days starting from 12th day of immunization by PCR analysis (reference value: 46.5 +/-6%); assay type: functional; settings: time 14 day
Mus musculus [10] = assay: Anti-inflammatory activity against MOG35-55-induced experimental autoimmune encephalomyelitis C57BL/6 mouse model assessed as reduction in EAE symptoms by measuring reduction in paralysis of hind limbs at 300 to 600 mg/kg/day, ig for 14 days starting from 12th day of immunization; assay type: functional, organism-based; settings: dose 300-600 mg/kg/day, time 14.0 day

## CCCCCCCCc1ccc(CCC(N)(CO)CO)cc1 [FINGOLIMOD]
Mus musculus [1]
  fold change (FC): 3.06
Mus musculus [2]
  fold change (FC): -1.46

## CCCCCCCCCCCCCCCCCCCCCCCCC(=O)O[C@H]1CC[C@]2(C)[C@H]3CC=C4[C@@H]5CC(C)(C)CC[C@]5(CO)CC[C@@]4(C)[C@]3(C)CC[C@H]2C1(C)C
Mus musculus [3]
  fold change (FC): 1.01
Mus musculus [4]
  fold change (FC): 2
Mus musculus [5]
  fold change (FC): 1.32
Mus musculus [6]
  fold change (FC): 1.42
Mus musculus [7]
  fold change (FC): 2
Mus musculus [8]
  fold change (FC): 1.28
Mus musculus [9]
  Activity: 65.3%
Mus musculus [10]
  Activity: Active
